Assay results as given in patent US7335757B2, “Carbonyl reductase, gene encoding the same, and process for producing optically active alcohols using the same” (Mitsubishi Chemical Corporation, priority 2002, dated 2008).

What was measured:
Assay type in all cases: biochemical, Ogataea minuta var. nonfermentans IFO 1473
carbonyl reductase [1] = test: Reduction activity of the enzyme on various ketones and aldehyde (initial rate of NADPH decrease)
carbonyl reductase [2] = test: 2,2,2-trifluoroacetophenone reducing activity after treating the enzyme with various reagents; conditions: enzyme treated at 30° C. for 10 minutes
Procedure: Further, the enzyme was treated in various reagents at 30° C. for 10 minutes and then 2,2,2-trifluoroacetophenone reducing activity was measured.

carbonyl reductase [3] = test: Temperature stability of the enzyme (residual 2,2,2-trifluoroacetophenone reducing activity); conditions: 10 minutes, 20 mM phosphate buffer pH 7.0
[4] = relative to 2,2,2-trifluoroacetophenone defined as 100, NADPH, 0.1 M phosphate buffer pH 7.0

For `O=C(c1ccccc1)C(F)(F)F` [2,2,2-Trifluoro-acetophenone], the “Specific activity (%)” value (carbonyl reductase [1]; pH 7) was 100.0%.

For `CCC(=O)c1ccccc1` [Propiophenone], the “Specific activity (%)” value (carbonyl reductase [1]; pH 7) was 18.8%.

With `CC(=O)c1cccc(Cl)c1` [m-Chloro-acetophenone] the “Specific activity (%)” value (carbonyl reductase [1]; pH 7) was 30.7%.

In the case of `CC(=O)C(C)=O` [Diacetyl], the “Specific activity (%)” value (carbonyl reductase [1]; pH 7) is reported as 12.3%.

In the case of `CCOC(=O)CC(=O)c1ccccc1` [Ethyl benzoylacetate], the “Specific activity (%)” value (carbonyl reductase [1]; [4]) is reported as 10.9%.

`CC1(Cl)CCCCC1=O` (centres unmarked) [2-Chloro-2-Methyl-cyclohexanone] was tested, and the “Specific activity (%)” value (carbonyl reductase [1]; [4]) was 105.4%.

With `CC1(C)COC(=O)C1=O` [α-Keto-pantolactone] the “Specific activity (%)” value (carbonyl reductase [1]; [4]) was 26.3%.

For `N#CCCc1ccccc1` [Benzylacetonitrile], the “Specific activity (%)” value (carbonyl reductase [1]; pH 7) was 25.9%.

With `O=Cc1cccc([N+](=O)[O-])c1` [m-Nitrobenzaldehyde] the “Specific activity (%)” value (carbonyl reductase [1]; [4]) was 45.6%.

With `O=Cc1ccc(Cl)cc1` [p-Chlorobenzaldehyde] the “Specific activity (%)” value (carbonyl reductase [1]; [4]) was 15.2%.

For `O=C1CCCCC1Cl` (centres unmarked) [2-Chloro-cyclohexanone], the “Specific activity (%)” value (carbonyl reductase [1]; pH 7) was 163.0%.

`O=Cc1ccccc1[N+](=O)[O-]` [o-Nitrobenzaldehyde] was tested, and the “Specific activity (%)” value (carbonyl reductase [1]; [4]) was 52.6%.

For `O=C(CCl)c1ccccc1` [2-Chloro-acetophenone], the “Specific activity (%)” value (carbonyl reductase [1]; pH 7) was 19.6%.

With `CC(=O)c1cccc(Br)c1` [m-Bromo-acetophenone] the “Specific activity (%)” value (carbonyl reductase [1]; [4]) was 21.3%.

For `CCOC(=O)C(=O)C(C)C` [Ethyl-3-methyl-2-oxobutanoate], the “Specific activity (%)” value (carbonyl reductase [1]; [4]) was 72.1%.

With `O=Cc1cccc(Cl)c1` [m-Chlorobenzaldehyde] the “Specific activity (%)” value (carbonyl reductase [1]; [4]) was 14.3%.

In the case of `O=[N+]([O-])[O-].[Hg+]` [mercury nitrate], the “activity of enzyme in the presence of reagent” value (carbonyl reductase [2]) is reported as “considerably inhibited”.

For `O=Cc1ccccc1Cl` [o-Chlorobenzaldehyde], the “Specific activity (%)” value (carbonyl reductase [1]; [4]) was 81.2%.

For `CC(=O)c1ccc(Cl)cc1` [p-Chloro-acetophenone], the “Specific activity (%)” value (carbonyl reductase [1]; pH 7) was 10.2%.

For `[Cl][Pb][Cl]` [lead chloride], the “activity of enzyme in the presence of reagent” value (carbonyl reductase [2]) was “considerably inhibited”.

B1: carbonyl reductase: Carbonyl reductase purified from Ogataea minuta var. nonfermentans IFO 1473, amino acid sequence SEQ ID NO: 1, about 27,000 Da by SDS-PAGE (protein)
chain: MAKTVYFIAGASRGIGLEVASQLSANPDNYVIASYRSEKSASGLLELAKKDNVDTIVLDIASQESIDAVPAQISKLTDGIDVALINAGIANAMCPILECSRESYTDHWTTNALGPIMLYQAIHKFMLQRETRKVFFTTSAGGSIQAKIPVPVSGYGMSKAALNYAVRKLADECYKDNFTIVLLHPGFVKTDMGQSAIQKMSNGNAELLAYIDSMTIDVPTSAGQIVGAIMTLDKQSSGRFINAADQFDMPF
modifications: Ogataea minuta var nonfermentans
B1 was tested, and the residual activity (carbonyl reductase [3]; 50° C. or more) was “rapidly deactivated”, the residual activity (carbonyl reductase [3]; 70° C.) was “lost the activity completely” and the residual activity (carbonyl reductase [3]; up to 40° C.) was at least 79%.
